US20240415791A1, “Therapeutic methods and compositions for treating cancer using devimistat and a fatty acid oxidation inhibitor, a tyrosine kinase inhibitor, a glutaminase inhibitor, and/or a glycolysis inhibitor” (Cornerstone Pharmaceuticals, Inc., priority 2021, published 2024)

Key:
Assay type in all cases: cell-based, human
AsPC1 cells [1] = experiment: Acute ATP synthesis rescue by exogenous carbon sources in AsPC1 cells treated with devimistat and GPi; conditions: for inhibition of oleic acid (OA)-driven acute ATP synthesis / OA rescue: AsPC1, 50 μM GPi; for inhibition of oleic acid (OA)-driven acute ATP synthesis / OA rescue / OA rescue blockade: 60 μM devimistat, 50 μM oleic acid; for OA rescue blockade: acute ATP synthesis, 50 μM GPi
AsPC1 cells [2] = experiment: Devimistat-induced cell death (ATP after recovery) in AsPC1 cells; conditions: for sensitization to devimistat-induced cell death, agent combined with devimistat: AsPC1, nutrient-free CBS2, treatment followed by recovery in serum-free RPMI; for Devimistat synergy: devimistat-induced cell death, no exogenous carbon, 15 hours treatment then recovery
Procedure: Cells were plated at 80% confluency in complete RPMI in black, clear bottom 96-well plates or 35-mm dishes for ATP, protein and glycogen analysis, or glass coverslips for fluorescence visualization. […] Prior to drug treatment, cells were incubated in a nutrient-free carbonate buffered salt solution (CBS2) for 3 hours. Drug treatments were then carried out in CBS2 with addition of nutrient sources and/or chemical agents as described in the Examples and Figures.
LOGIC: High throughput, plate reader assays for cell death essentially always ultimately depend on metabolic activity of cells to identify viability, directly or indirectly. Thus, strong inhibition of metabolic activity by anti-metabolism agents like those described herein can confound cell death analysis by such assays. […] The inventors thus used a recovery-based assay wherein cells are treated with anti-metabolic agents under conditions where mitochondrial metabolism is (or becomes) limiting on viability. After experimental treatment, drug and media are removed and cells are allowed to recover in serum-free RPMI. RPMI provides high levels of glucose in support of glycolytic ATP generation (independently of mitochondrial function), allowing viable cells to recover ATP levels that are ultimately measured in the plate assay to score cell viability.
Survival is assessed by conventional luminescence measurement of ATP levels after this recovery.
TECHNICAL DETAILS: Immediately after drug treatments, acute ATP levels of cells in black, clear bottom 96-well plates were measured using the CellTiter-Glo® Luminescent Cell Viability Assay (catalog #G775B) following Promega (Madison, WI) protocols. […] After this recovery period ATP levels were measured using the CellTiter-Glo® Luminescent Cell Viability Assay as described above.
Survival is assessed by conventional luminescence measurement of ATP levels after this recovery. See the Methods section above for a detailed description of this assay and its validation.

AsPC1 cells [3] = experiment: Glycogen content in AsPC1 cells; conditions: AsPC1, CBS2, 3 hours
Procedure: Glycogen was quantified using the Glycogen Assay Kit II (colorimetric) from AbCam (ab169558) according to manufacturer's instructions. Briefly, approximately 2×10^6 cells were washed with ice-cold PBS and collected via scraping in 300 μL ice-cold ddH2O. Cells were immediately sonicated on ice for 5× […] pulses with a probe sonicator (Misonix Inc, model XL2000), then heated to 80° C. for 10 min. Samples were stored O/N at −20° C., then thawed, centrifuged at 12,000×g for 10 min and the supernatants collected for glycogen hydrolysis and quantification according to manufacturer's instructions.
C. […] Cells were treated in CBS2 for 3 hours with 30 μM devimistat or mock treated (FIG. 2C, left), or treated for 3 hours with the indicated devimistat doses (FIG. 2C, right).
D. Effects of anti-metabolism agents on glycogen consumption in PANC1 and AsPC1 cells. […] Glycogen content was measured in cell lysates (see Methods, above) and the results are presented in the left and middle graphs in FIG. 3D (note the different vertical scales for PANC1 and AsPC1 plots).

COc1cc2c(Oc3ccc(NC(=O)C4(C(=O)Nc5ccc(F)cc5)CC4)cc3F)ccnc2cc1OCCCN1CCOCC1 [Foretinib, N1′-[3-fluoro-4-[[6-methoxy-7-(3-morpholinopropoxy)-4-quinolyl]oxy]phenyl]-N1-(4-fluorophenyl)cyclopropane-1,1-dicarboxamide]
inhibition of oleic acid (OA)-driven acute ATP synthesis / OA rescue (AsPC1 cells [1]): robust inhibition
OA rescue blockade (AsPC1 cells [1]): Yes
sensitization to devimistat-induced cell death, agent combined with devimistat (AsPC1 cells [2]): robustly sensitize
Devimistat synergy (AsPC1 cells [2]): Yes

CNC(=O)c1c(F)cccc1Nc1nc(Nc2cc3c(cc2OC)CCN3C(=O)CN(C)C)nc2[nH]ccc12 [GSK1838705A]
inhibition of oleic acid (OA)-driven acute ATP synthesis / OA rescue (AsPC1 cells [1]): little or no inhibition
OA rescue blockade (AsPC1 cells [1]): No
sensitization to devimistat-induced cell death, agent combined with devimistat (AsPC1 cells [2]): more limited sensitization
Devimistat synergy (AsPC1 cells [2]): No

CSc1cccc(Nc2ncc3cc(-c4c(Cl)cccc4Cl)c(=O)n(C)c3n2)c1 [PD-173955]
inhibition of oleic acid (OA)-driven acute ATP synthesis / OA rescue (AsPC1 cells [1]): little or no inhibition
OA rescue blockade (AsPC1 cells [1]): No
sensitization to devimistat-induced cell death, agent combined with devimistat (AsPC1 cells [2]): more limited sensitization
Devimistat synergy (AsPC1 cells [2]): No

Oc1c(Cl)cc(Cl)c(Cl)c1Cc1c(O)c(Cl)cc(Cl)c1Cl [hexachlorophene]
blockade of glutamine rescue from devimistat inhibition of ATP synthesis (AsPC1 cells [1]): blockade

CC[C@H]1/C=C/C=C/C[C@@H](C)[C@H](O)[C@@](C)(O)C(=O)[C@@H](C)[C@H](O)[C@@H](C)C(=O)[C@@H](C)[C@H](O)[C@@H](C)/C=C/C(=O)O[C@@H]2[C@H](C)[C@H](CC1)O[C@]1(CC[C@H](C)[C@H](C[C@@H](C)O)O1)[C@H]2C [oligomycin]
glycogen consumption (AsPC1 cells [3]): induce accelerated glycogen depletion

[H]/N=C(/N)N/C(=N/[H])NCCc1ccccc1 [phenformin]
sensitization to devimistat-induced cell death, agent combined with devimistat (AsPC1 cells [2]): sensitizes AsPC1 to devimistat

C=C(C)[C@H]1Cc2c(ccc3c2O[C@@H]2COc4cc(OC)c(OC)cc4[C@@H]2C3=O)O1 [rotenone]
glycogen consumption (AsPC1 cells [3]): induce accelerated glycogen depletion
